This note sets out measurements from patent US20240368154A1 (GENOSCO Inc., priority 2023, published 2024).

Molecules are shown by their SMILES. Where a name gives a salt, the structure may show the parent alone.

In assay [1] the target is T1, Recombinant ROCK1 (amino acids 1-477) (Homo sapiens, UniProt Q13464).
T1 construct: Recombinant ROCK1 (amino acids 1-477)
The assay is described as follows: ROCK inhibition assay, LANCE Ultra TR-FRET kinase assay. In kind it is biochemical. To be noted: at Km of ATP (table title), method: 1 mM ATP, 50 nM ULight-CREBtide substrate, 1 hour, room temperature. The protocol: (§1) Kinase IC50 was determined through an in vitro assay based on LANCE Ultra TR-FRET (Time-Resolved Fluorescence Resonance Energy Transfer) homogeneous technologies method (Perkin Elmer). Recombinant ROCK1 (amino acids 1-477) and ROCK2 (amino acids 5-554) proteins were purchased from Carna Biosciences and SignalChem. Compound activities were measured by Envision and IC50s were calculated. The assays were performed in white LUMITRAC™ 200 96 well half-area microplates from Greiner Bio-One. The kinase reaction buffer consisted of 50 mM HEPES pH 7.5, 1 mM EGTA, 10 mM MgCl2, 2 mM DTT and 0.01% Tween-20. Kinases were incubated with 50 nM (ULight-CREBtide) substrate in the presence of 1 mM (ROCK1) or 1 mM (ROCK2) of ATP. The kinase reaction was carried out for 1 hour before addition of a stopping buffer to a final of 10 mM EDTA and 0.6 nM of LANCE Ultra Europium anti-phospho-CREB (Ser133) antibody (PerkinElmer TRF0200) in LANCE detection buffer. All assay incubations were performed at room temperature, and the microplates were sealed with polyester film during that time. The reaction was incubated for 1 hour, and the signal was read in Envision in TR-FRET mode (excitation at 320 nm and emission at 615/665 nm).
(§2) As used herein, a way to describe potency of inhibitory activity (nM) is a value of inhibitory activity at 50% (IC50).
(Time-resolved FRET reads energy transfer from a long-lived donor to a nearby acceptor.)

Assay [2] deals with T2, Recombinant ROCK2 (amino acids 5-554) (Homo sapiens, UniProt O75116).
T2 construct: ROCK2 (amino acids 5-554)
The assay is described as above. Type of assay: biochemical. To be noted: at Km of ATP (table title), method: 1 mM ATP, 50 nM ULight-CREBtide substrate, 1 hour, room temperature. On the procedure:
as §1, §2

T1 sequence (Q13464 1-477): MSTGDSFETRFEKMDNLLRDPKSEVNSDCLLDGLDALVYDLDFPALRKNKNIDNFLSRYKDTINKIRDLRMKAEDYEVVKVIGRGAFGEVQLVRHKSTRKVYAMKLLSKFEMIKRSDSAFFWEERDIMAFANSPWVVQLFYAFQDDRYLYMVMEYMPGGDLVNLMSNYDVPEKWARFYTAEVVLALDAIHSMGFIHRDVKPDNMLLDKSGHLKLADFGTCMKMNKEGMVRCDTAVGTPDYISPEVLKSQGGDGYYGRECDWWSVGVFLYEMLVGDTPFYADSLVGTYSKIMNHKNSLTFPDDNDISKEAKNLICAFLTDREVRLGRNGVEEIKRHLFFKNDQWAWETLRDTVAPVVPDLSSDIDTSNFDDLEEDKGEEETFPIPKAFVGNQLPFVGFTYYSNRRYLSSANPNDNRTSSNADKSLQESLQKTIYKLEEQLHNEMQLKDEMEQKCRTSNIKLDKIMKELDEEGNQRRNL
T2 sequence (O75116 5-554): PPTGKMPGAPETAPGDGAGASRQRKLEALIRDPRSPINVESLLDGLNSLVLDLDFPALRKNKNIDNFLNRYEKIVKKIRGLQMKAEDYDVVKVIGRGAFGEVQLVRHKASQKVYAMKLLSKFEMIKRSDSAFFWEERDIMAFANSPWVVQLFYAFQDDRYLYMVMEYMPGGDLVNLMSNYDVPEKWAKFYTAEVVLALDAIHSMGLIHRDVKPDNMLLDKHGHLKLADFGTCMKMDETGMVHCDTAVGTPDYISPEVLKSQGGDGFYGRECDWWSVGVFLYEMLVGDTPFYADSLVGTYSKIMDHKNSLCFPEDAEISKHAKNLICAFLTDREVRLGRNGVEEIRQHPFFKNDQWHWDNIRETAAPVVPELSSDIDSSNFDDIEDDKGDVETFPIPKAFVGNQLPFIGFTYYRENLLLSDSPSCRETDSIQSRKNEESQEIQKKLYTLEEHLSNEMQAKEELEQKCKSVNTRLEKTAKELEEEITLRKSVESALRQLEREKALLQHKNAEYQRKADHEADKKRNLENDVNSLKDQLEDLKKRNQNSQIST

In general, IC50 refers to the concentration at which inhibition is half-maximal. Take `COc1n[nH]cc1-c1ccc2c(C(=O)[C@@H]3COc4ccc(F)cc4C3)cn(CCO)c2c1` (single isomer, unassigned) [Compound 2-21]: the IC50 is 11 to 50 nM in assay [1] and below 10 nM in assay [2].
The corresponding values for `COc1ccc2c(c1)CC(C(=O)c1cn(CC(C)(C)O)c3cc(-c4cn[nH]c4Cl)ncc13)CO2` (stereo not shown) [Compound 1-29] are below 10 nM and below 10 nM.
`COc1n[nH]cc1-c1ccc2c(C(=O)C3COc4ccc(Cl)cc4C3)nn(C[C@H](C)O)c2c1` (stereo partly shown) [Compound 2-35]: the IC50 in assay [1] lay in the range of 51 to 500 nM; in assay [2], 11 to 50 nM.
On to `C[C@@H](O)Cn1cc(C(=O)[C@@H]2COc3ccc(F)cc3C2)c2cnc(-c3cn[nH]c3F)nc21` [Compound 1-51], for which the IC50 in assay [1] and in assay [2] was below 10 nM each time.
Regarding `C[C@H](O)Cn1cc(C(=O)[C@@H]2COc3ccc(Cl)cc3C2)c2cnc(-c3cn[nH]c3Cl)cc21` [Compound 1-11], the IC50 in assay [1] and in assay [2] was 11 to 50 nM in each case.
On to `CC(C)(O)Cn1cc(C(=O)[C@@H]2COc3ccc(Cl)cc3C2)c2cnc(-c3c[nH]nc3Cl)cc21` [Compound 1-32], for which the concentration for half-maximal inhibition (IC50) was 11 to 50 nM in assay [1] and below 10 nM in assay [2].
For the molecule `CC[C@H](O)Cn1cc(C(=O)C2COc3ccc(Cl)cc3C2)c2cnc(-c3cn[nH]c3Cl)cc21` (stereo partly shown) [Compound 1-35], the IC50 in assay [1] was 51 to 500 nM; in assay [2], 11 to 50 nM.
In the same order, the values of `O=C(c1cn(CCO)c2cc(-c3c[nH]nc3Cl)ccc12)C1COc2ccccc2C1` (stereo not shown) [Compound 2-6] are 11 to 50 nM and below 10 nM.
Consider `C[C@@H](O)Cn1cc(C(=O)C2COc3ccc(F)cc3C2)c2cnc(-c3c[nH]nc3Cl)cc21` (stereo partly shown) [Compound 1-21], for which the IC50 in assay [1] and in assay [2] was below 10 nM each time.
Consider `CC(C)(O)Cn1cc(C(=O)[C@@H]2COc3ccc(Cl)cc3C2)c2cnc(-c3cn[nH]c3F)cc21` [Compound 1-31], for which the IC50 in assay [1] and in assay [2] was below 10 nM throughout.
`COc1n[nH]cc1-c1ccc2c(C(=O)C3COc4ccc(F)cc4C3)cn(CCO)c2c1` (racemic) [Compound 2-20]: the IC50 in assay [1] and in assay [2] was 11 to 50 nM in each case.
On to `C[C@H](O)Cn1cc(C(=O)C2COc3ccc(F)cc3C2)c2cnc(-c3c[nH]nc3Cl)cc21` (stereo partly shown) [Compound 1-20], for which the IC50 in assay [1] and in assay [2] was below 10 nM throughout.
On to `O=C(c1cn(CCO)c2nc(-c3c[nH]nc3Cl)ccc12)C1COc2ccc(F)cc2C1` (stereo not shown) [Compound 1-3], for which the IC50 is 11 to 50 nM in assay [1] and below 10 nM in assay [2].
The corresponding values for `COc1n[nH]cc1-c1ccc2c(C(=O)C3COc4ccc(Cl)cc4C3)nn(CC#N)c2c1` (stereo not shown) [Compound 2-29] are above 501 nM and 51 to 500 nM.
For `O=C(c1cn(CCO)c2cc(-c3cn[nH]c3)ccc12)C1COc2ccc(F)cc2O1` (stereo not shown) [Compound 2-9], the IC50 in assay [1] was 11 to 50 nM; in assay [2] it was below 10 nM.
Regarding `COc1n[nH]cc1-c1ccc2c(C(=O)C3COc4ccc(F)cc4C3)nn(CCO)c2c1` (stereo not shown) [Compound 2-27], the results for the IC50 in assay [1] and in assay [2] were 11 to 50 nM and below 10 nM, respectively.
Turning to `COc1n[nH]cc1-c1cc2c(cn1)c(C(=O)C1COc3ccc(Cl)cc3C1)cn2CCO` (stereo not shown) [Compound 1-59, hydrochloride], the values for the IC50 in assay [1] (hydrochloride) and in assay [2] (hydrochloride) were 51 to 500 nM and 11 to 50 nM, respectively.
As to `CC(O)Cn1cc(C(=O)C2COc3ccc(F)cc3C2)c2cnc(-c3c[nH]nc3Cl)cc21` (stereo not shown) [Compound 1-14], the IC50 in assay [1] and in assay [2] was below 10 nM throughout.
Regarding `COc1n[nH]cc1-c1ccc2c(C(=O)[C@H]3COc4ccc(F)cc4C3)cn(CCO)c2c1` (single isomer, unassigned) [Compound 2-22], the IC50 in assay [1] is above 501 nM; in assay [2], 51 to 500 nM.
With `O=C(c1cn(CCO)c2cc(-c3c[nH]c4ncccc34)ccc12)C1COc2ccccc2C1` (stereo not shown) [Compound 2-5], the IC50 in assay [1] fell in the range of 51 to 500 nM; in assay [2], 11 to 50 nM.
`O=C(c1nn(CCO)c2cc(-c3cn[nH]c3)ccc12)C1COc2ccc(F)cc2O1` (stereo not shown) [Compound 3-3]: the IC50 in assay [1] was 11 to 50 nM; in assay [2], below 10 nM.
In the same order, the values of `COc1n[nH]cc1-c1ccc2c(C(=O)c3coc4ccccc34)nn(CCO)c2c1` [Compound 2-32] are above 501 nM and 51 to 500 nM.
Turning to `COc1[nH]ncc1-c1ncc2c(C(=O)C3COc4ccc(Cl)cc4C3)cn(C[C@H](C)O)c2n1` (stereo partly shown) [Compound 1-53], the figures for the IC50 in assay [1] and in assay [2] were 51 to 500 nM and 11 to 50 nM, respectively.
As for `COc1ccc2c(c1)C[C@H](C(=O)c1cn(C[C@H](C)O)c3cc(-c4cn[nH]c4F)ncc13)CO2` [Compound 1-26], the concentration for half-maximal inhibition (IC50) in assay [1] and in assay [2] was below 10 nM each time.
As for `C[C@@H](O)Cn1cc(C(=O)[C@@H]2COc3ccc(F)cc3C2)c2cnc(-c3cn[nH]c3F)nc21` [Compound 1-50], the IC50 in assay [1] and in assay [2] was below 10 nM in each case.
Consider `CC(C)(O)Cn1cc(C(=O)[C@@H]2COc3ccc(Cl)cc3C2)c2cnc(-c3c[nH]nc3Cl)cc21` [Compound 1-17], for which the IC50 in assay [1] and in assay [2] was below 10 nM in each case.
With `C[C@@H](O)Cn1cc(C(=O)[C@@H]2COc3ccc(Cl)cc3C2)c2cnc(-c3cn[nH]c3Cl)cc21` [Compound 1-10], the figures for the IC50 in assay [1] and in assay [2] were 11 to 50 nM and below 10 nM, respectively.
Turning to `C[C@H](O)Cn1cc(C(=O)C2COc3ccc(Cl)cc3C2)c2cnc(-c3cn[nH]c3Cl)cc21` (stereo partly shown) [Compound 1-7], the IC50 in assay [1] was 11 to 50 nM; in assay [2], below 10 nM.
For `CC[C@H](O)Cn1cc(C(=O)C2COc3ccc(Cl)cc3C2)c2cnc(-c3cn[nH]c3F)cc21` (stereo partly shown) [Compound 1-36], the IC50 lay in the range of 51 to 500 nM in assay [1] and 11 to 50 nM in assay [2].
Turning to `COc1n[nH]cc1-c1ccc2c(C(=O)C3COc4ccc(Cl)cc4C3)cn(C[C@H](C)O)c2c1` (stereo partly shown) [Compound 1-43], the IC50 lay within 51 to 500 nM in assay [1] and 11 to 50 nM in assay [2].
Take `CC(O)Cn1cc(C(=O)C2COc3ccc(Cl)cc3C2)c2cnc(-c3c[nH]nc3Cl)cc21` (stereo not shown) [Compound 1-6]: the values for the IC50 in assay [1] and in assay [2] were 11 to 50 nM and below 10 nM, respectively.
`COCCn1nc(C(=O)C2COc3ccccc3C2)c2ccc(-c3cn[nH]c3)cc21` (stereo not shown) [Compound 2-24, Chroman-3-yl-[1-(2-methoxyethyl)-6-(1H-pyrazol-4-yl)indazol-3-yl]methanone]: the IC50 was 11 to 50 nM in assay [1] and below 10 nM in assay [2].
The corresponding values for `COc1n[nH]cc1-c1ccc2c(C(=O)C3COc4ccc(Cl)cc4C3)nn(CC(C)O)c2c1` (stereo not shown) [Compound 2-33] are 51 to 500 nM and 11 to 50 nM.
In the same order, the values of `CC(C)c1n[nH]cc1-c1ccc2c(C(=O)C3COc4ccc(F)cc4C3)nn(CCO)c2c1` (stereo not shown) [Compound 2-28] are above 501 nM and above 501 nM.
The corresponding values for `COc1n[nH]cc1-c1ccc2c(C(=O)C3(C)COc4ccccc4O3)nn(CCO)c2c1` (stereo not shown) [Compound 2-31] are 51 to 500 nM and 51 to 500 nM.
Consider `C[C@H](O)Cn1cc(C(=O)[C@@H]2COc3ccc(Cl)cc3C2)c2cnc(-c3cn[nH]c3Cl)cc21` [Compound 1-12], for which the IC50 in assay [1] is 11 to 50 nM; in assay [2] it was below 10 nM.
In the same order, the values of `CC(C)(O)Cn1cc(C(=O)C2COc3ccc(Cl)cc3C2)c2cnc(-c3c[nH]nc3Cl)cc21` (stereo not shown) [Compound 1-16] are 11 to 50 nM and below 10 nM.
For the molecule `O=C(c1cn(CC2CC(O)C2)c2cc(-c3cn[nH]c3Cl)ncc12)C1COc2ccc(Cl)cc2C1` (stereo not shown) [Compound 1-38], the values for the IC50 in assay [1] and in assay [2] were 11 to 50 nM and below 10 nM, respectively.
In the case of `O=C(c1nn(CCO)c2cc(-c3c[nH]nc3C(F)(F)F)ccc12)C1COc2ccc(F)cc2C1` (stereo not shown) [Compound 2-26], the IC50 in assay [1] and in assay [2] was 51 to 500 nM throughout.
Take `O=C(c1cn(CCO)c2cc(-c3cn[nH]c3)ccc12)C1COc2ccccc2O1` (stereo not shown) [Compound 2-1, 2,3-Dihydro-1,4-benzodioxin-3-yl-[1-(2-hydroxyethyl)-6-(1H-pyrazol-4-yl)indol-3-yl]methanone]: the 50% inhibitory concentration (IC50) in assay [1] and in assay [2] was below 10 nM throughout.
As for `COc1[nH]ncc1-c1cc2c(cn1)c(C(=O)[C@H]1COc3ccc(Cl)cc3C1)cn2C[C@H](C)O` [Compound 1-34], the IC50 was 51 to 500 nM in assay [1] and 11 to 50 nM in assay [2].
With `O=C(c1cn(CCO)c2cc(-c3cn[nH]c3)ccc12)C1COc2ccc(Cl)cc2C1` (stereo not shown) [Compound 2-2, (6-Chlorochroman-3-yl)-[1-(2-hydroxyethyl)-6-(1H-pyrazol-4-yl)indol-3-yl]methanone], the IC50 in assay [1] and in assay [2] was below 10 nM throughout.
For `COc1n[nH]cc1-c1ccc2c(C(=O)C3COc4ccc(Cl)cc4C3)cn(C[C@@H](C)O)c2c1` (stereo partly shown) [Compound 1-44], the IC50 in assay [1] and in assay [2] was 11 to 50 nM in each case.
As for `O=C(c1cn(CCO)c2cc(-c3cn[nH]c3)ccc12)C1COc2cc(Cl)ccc2O1` (stereo not shown) [Compound 2-10], the values for the IC50 in assay [1] and in assay [2] were 51 to 500 nM and 11 to 50 nM, respectively.
